ChEMBL document CHEMBL1130912, “SAR of novel biarylmethylamine dopamine D4 receptor ligands” (Bioorg Med Chem Lett, 1998)
“And” between values parts separate entries of the source, which are not always exact repeats. Identical values can stand only once.

Columns and labels:
D(2) dopamine receptor [1] = target: T1, D(2) dopamine receptor (Homo sapiens, UniProt P14416); assay: biochemical
Description: Binding affinity to cloned human Dopamine receptor D2 expressed in A9L cells by [3H]spiperone displacement.

D(4) dopamine receptor = target: T2, D(4) dopamine receptor (Homo sapiens, UniProt P21917); assay: biochemical
T2 sequence (P21917 whole entry): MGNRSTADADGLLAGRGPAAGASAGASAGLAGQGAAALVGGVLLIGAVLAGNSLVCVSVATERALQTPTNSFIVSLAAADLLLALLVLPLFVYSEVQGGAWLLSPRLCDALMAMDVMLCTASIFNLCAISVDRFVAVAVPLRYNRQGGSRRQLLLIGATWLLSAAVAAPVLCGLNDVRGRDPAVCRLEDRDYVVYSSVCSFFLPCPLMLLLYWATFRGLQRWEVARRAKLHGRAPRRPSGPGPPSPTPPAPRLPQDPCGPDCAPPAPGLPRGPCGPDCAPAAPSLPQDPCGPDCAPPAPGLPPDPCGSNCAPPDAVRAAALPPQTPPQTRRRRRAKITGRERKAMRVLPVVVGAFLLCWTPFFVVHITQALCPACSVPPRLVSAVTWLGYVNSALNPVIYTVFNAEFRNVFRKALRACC
Description: Binding affinity to cloned human Dopamine receptor D4 expressed in CHO cells using [3H]spiperone

[2] = target: T3, 5-hydroxytryptamine receptor 1A (Rattus norvegicus, UniProt P19327); assay: biochemical
T3 sequence (P19327 whole entry): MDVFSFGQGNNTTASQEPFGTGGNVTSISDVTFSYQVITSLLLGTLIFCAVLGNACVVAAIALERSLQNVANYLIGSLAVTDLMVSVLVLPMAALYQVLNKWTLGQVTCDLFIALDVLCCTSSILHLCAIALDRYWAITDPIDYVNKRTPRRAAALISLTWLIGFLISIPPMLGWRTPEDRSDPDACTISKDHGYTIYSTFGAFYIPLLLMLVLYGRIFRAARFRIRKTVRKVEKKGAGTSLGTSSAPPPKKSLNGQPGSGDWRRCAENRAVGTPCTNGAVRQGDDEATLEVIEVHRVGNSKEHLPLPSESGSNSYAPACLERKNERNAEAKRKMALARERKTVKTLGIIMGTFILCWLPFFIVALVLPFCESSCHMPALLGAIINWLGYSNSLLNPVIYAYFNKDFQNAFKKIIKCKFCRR
Description: Binding affinity to 5-HT1A receptor in rat hippocampus by [3H]8-OH-DPAT displacement.

D(3) dopamine receptor [3] = target: T4, D(3) dopamine receptor (Homo sapiens, UniProt P35462); assay: biochemical
T4 sequence (P35462 whole entry): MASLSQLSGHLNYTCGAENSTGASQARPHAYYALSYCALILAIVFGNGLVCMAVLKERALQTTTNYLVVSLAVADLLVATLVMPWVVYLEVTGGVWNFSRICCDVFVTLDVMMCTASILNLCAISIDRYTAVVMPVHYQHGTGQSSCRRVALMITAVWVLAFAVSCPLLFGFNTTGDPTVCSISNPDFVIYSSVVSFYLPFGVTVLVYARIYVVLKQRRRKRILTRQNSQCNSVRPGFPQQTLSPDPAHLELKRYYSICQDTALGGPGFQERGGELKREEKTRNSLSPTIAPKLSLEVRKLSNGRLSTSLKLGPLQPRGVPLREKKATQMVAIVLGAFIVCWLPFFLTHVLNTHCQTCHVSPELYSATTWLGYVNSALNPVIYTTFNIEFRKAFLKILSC
Description: Binding affinity to cloned human Dopamine receptor D3 expressed in CHO cells by [3H]spiperone displacement.

D(3) dopamine receptor [4] = target: T4, D(3) dopamine receptor; assay: Binding affinity to cloned human Dopamine receptor D3 expressed in CHO cells using [3H]spiperone at 100 nM concentration; assay type: cell-based
D(2) dopamine receptor [5] = target: T1, D(2) dopamine receptor; assay: Binding affinity to cloned human Dopamine receptor D2 expressed in A9L cells using [3H]spiperone at 100 nM concentration; assay type: cell-based
[6] = target: T5, D(4) dopamine receptor (Homo sapiens) (UniProt P21917); assay: Binding affinity to cloned human dopamine receptor D4 expressed in CHO cells using [3H]spiperone at 100 nM concentration; assay type: cell-based
T5 sequence (whole entry): T2 sequence (P21917 whole entry)

T1 sequence (P14416 whole entry): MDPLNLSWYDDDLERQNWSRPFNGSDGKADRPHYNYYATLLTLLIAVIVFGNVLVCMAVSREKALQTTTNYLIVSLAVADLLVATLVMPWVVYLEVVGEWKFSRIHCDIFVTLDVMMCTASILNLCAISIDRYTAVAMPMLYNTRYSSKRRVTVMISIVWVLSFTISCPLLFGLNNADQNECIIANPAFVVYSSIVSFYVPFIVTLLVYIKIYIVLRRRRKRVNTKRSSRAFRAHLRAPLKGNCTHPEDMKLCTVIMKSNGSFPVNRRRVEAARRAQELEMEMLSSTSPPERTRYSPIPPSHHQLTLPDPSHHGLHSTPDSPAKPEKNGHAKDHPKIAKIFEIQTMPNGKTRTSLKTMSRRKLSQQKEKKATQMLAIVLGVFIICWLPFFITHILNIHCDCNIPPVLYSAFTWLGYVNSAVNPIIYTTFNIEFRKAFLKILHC

IC50 (D(2) dopamine receptor [1]) [nM]	IC50 (D(4) dopamine receptor)	IC50 [2] [nM]	IC50 (D(3) dopamine receptor [3]) [nM]	Structure (SMILES)	inhibition (D(3) dopamine receptor [4]) [%]	inhibition (D(2) dopamine receptor [5]) [%]	inhibition [6] [%]
60	7 nM	10	300	Fc1ccc(-c2cncc(CN3CCN(c4ccccn4)CC3)c2)cc1			
50	57 nM	2000	72	COc1ccc(-c2cccc(CN3CCN(c4ncccn4)CC3)c2)cc1			
81	4 nM and 9 nM	300	200	Fc1cccc(-c2cccc(CN3CCN(c4ncccn4)CC3)c2)c1			
70	8 nM	400	200	Fc1ccc(-c2cncc(CN3CCN(c4ccc(F)cc4)CC3)c2)cc1			
49	2 nM and 7 nM	700	59	Fc1ccc(-c2cccc(CN3CCN(c4ncccn4)CC3)c2)cc1			
120	9 nM and 7 nM	100	150	Fc1ccc(-c2cncc(CN3CCN(c4ncccn4)CC3)c2)cc1			
450	25 nM	400	480	Fc1ccc(-c2cncc(CN3CCN(c4cnccn4)CC3)c2)cc1			
250	8 nM	900	320	Fc1ccccc1-c1cccc(CN2CCN(c3ncccn3)CC2)c1			
25	3 nM and 7 nM	20	8	Fc1ccc(-c2cncc(CN3CCN(c4ccccc4F)CC3)c2)cc1			
360	16 nM	300	710	COc1ccccc1-c1cccc(CN2CCN(c3ncccn3)CC2)c1			
23	6 nM	70	33	Fc1ccc(-c2cncc(CN3CCN(c4ccccc4)CC3)c2)cc1			
490	17 nM	700	1100	COc1cccc(-c2cccc(CN3CCN(c4ncccn4)CC3)c2)c1			
300	3 nM and 6 nM	600	200	c1cnc(N2CCN(Cc3cccc(-c4ccsc4)c3)CC2)nc1			

Structure (SMILES)	IC50 (D(2) dopamine receptor [1]) [nM]	IC50 (D(4) dopamine receptor)	IC50 [2] [nM]	IC50 (D(3) dopamine receptor [3]) [nM]	inhibition (D(3) dopamine receptor [4]) [%]	inhibition (D(2) dopamine receptor [5]) [%]	inhibition [6] [%]
c1cnc(N2CCN(Cc3ccc4c(c3)Cc3ccccc3-4)CC2)nc1			> 100		91	89	87
c1cnc(N2CCN(Cc3cccc4c3oc3ccccc34)CC2)nc1		290 nM	> 100		91	94	
c1cnc(N2CCN(Cc3cccc4c3sc3ccccc34)CC2)nc1			> 100		101	97	87
c1cnc(N2CCN(Cc3cccc4c3Cc3ccccc3-4)CC2)nc1	9800	20 nM	> 10000	5600			
c1cnc(N2CCN(Cc3cccc4c3-c3ccccc3C4)CC2)nc1	2300	4800 nM	> 100	4000			
c1cnc(N2CCN(CC3c4ccccc4-c4ccccc43)CC2)nc1			> 100		95	100	99
CC(C)Oc1cccnc1N(C)C1CCN(Cc2ccccc2)CC1	620	5 nM and 8 nM	> 1000	5500			
